# Experimental data reported in ChEMBL document CHEMBL1821577, “Discovery of GSK1997132B a novel centrally penetrant benzimidazole PPARγ partial agonist” (Bioorg Med Chem Lett, 2011).
# pEC50: −log10 of the molar value.
# What was measured:
# [1] = target: T1, Peroxisome proliferator-activated receptor gamma (Homo sapiens) (UniProt P37231); experiment: Activity at human PPARgamma by luciferase reporter gene assay; design: concentration or dose not given beside the values
# T1 sequence (whole entry): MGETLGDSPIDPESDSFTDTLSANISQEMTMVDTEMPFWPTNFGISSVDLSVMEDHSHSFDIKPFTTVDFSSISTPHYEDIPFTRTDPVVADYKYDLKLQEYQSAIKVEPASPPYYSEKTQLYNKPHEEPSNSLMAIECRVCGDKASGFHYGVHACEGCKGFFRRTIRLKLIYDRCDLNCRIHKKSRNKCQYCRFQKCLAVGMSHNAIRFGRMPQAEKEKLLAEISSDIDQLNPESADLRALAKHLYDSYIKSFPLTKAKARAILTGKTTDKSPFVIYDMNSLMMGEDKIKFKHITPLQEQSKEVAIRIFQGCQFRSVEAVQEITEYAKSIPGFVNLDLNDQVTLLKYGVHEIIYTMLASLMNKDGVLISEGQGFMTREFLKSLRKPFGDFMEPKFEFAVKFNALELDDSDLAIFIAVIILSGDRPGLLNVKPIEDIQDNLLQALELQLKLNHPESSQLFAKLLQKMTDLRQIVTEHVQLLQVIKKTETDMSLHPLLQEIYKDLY
# [2] = target: T2, Peroxisome proliferator-activated receptor gamma (Homo sapiens, UniProt P37231); experiment: Partial agonist activity at human PPARgamma by luciferase reporter gene assay; format: functional
# T2 sequence (P37231 whole entry): T1 sequence (whole entry)
# [3] = Ratio of drug uptake in brain to blood at steady state in rat at 2 mg/kg/h, iv; format: ADME, organism-based; design: route intravenous
# Brain [4] = experiment: Drug uptake in rat brain at steady state at 2 mg/kg/h, iv; format: ADME, organism-based; design: route intravenous; details: in vivo, read-out: Drug uptake
# Rattus norvegicus [5] = experiment: Blood clearance at steady state in rat at 2 mg/kg/h, iv; format: ADME, organism-based; design: route intravenous; details: in vivo
# Liver microsomes [6] = experiment: Intrinsic clearance in human liver microsome; format: ADME
# Liver microsomes [7] = experiment: Intrinsic clearance in rat liver microsome; format: ADME
# Brain [8] = experiment: Drug uptake in rat brain at 3 mg/kg, po; format: ADME, organism-based; design: dose 3 mg/kg, route oral; details: in vivo, read-out: Drug uptake
# [9] = Ratio of drug uptake in brain to blood in rat at 3 mg/kg, po; format: ADME, organism-based; design: dose 3 mg/kg, route oral
# Liver [10] = experiment: Intrinsic clearance in rat liver S9 fraction; format: ADME, subcellular
# Rattus norvegicus [11] = experiment: Blood clearance in rat at 1 mg/kg, iv; format: ADME, organism-based; design: dose 1 mg/kg, route intravenous; details: in vivo
# [12] = target: T3, Peroxisome proliferator-activated receptor alpha (Homo sapiens, UniProt Q07869); experiment: Partial agonist activity at PPARalpha by luciferase reporter gene assay; format: functional
# T3 sequence (Q07869 whole entry): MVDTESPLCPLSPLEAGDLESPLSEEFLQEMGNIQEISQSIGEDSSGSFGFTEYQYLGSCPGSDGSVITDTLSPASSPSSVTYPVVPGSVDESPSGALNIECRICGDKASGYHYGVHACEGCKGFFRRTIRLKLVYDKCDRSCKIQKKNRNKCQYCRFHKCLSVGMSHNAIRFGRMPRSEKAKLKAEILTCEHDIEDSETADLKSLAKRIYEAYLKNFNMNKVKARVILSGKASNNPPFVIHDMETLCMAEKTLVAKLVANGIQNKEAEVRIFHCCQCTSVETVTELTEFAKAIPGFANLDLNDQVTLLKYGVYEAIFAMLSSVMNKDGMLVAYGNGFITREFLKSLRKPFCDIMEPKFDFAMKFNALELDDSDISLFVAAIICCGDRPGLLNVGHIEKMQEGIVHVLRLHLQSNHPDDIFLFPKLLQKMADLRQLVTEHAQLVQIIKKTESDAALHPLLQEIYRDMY
# Liver [13] = experiment: Intrinsic clearance in mouse liver microsome; format: ADME; details: microsomes
# Mus musculus = experiment: Blood clearance in mouse at 1 mg/kg, iv; format: ADME, organism-based; design: dose 1 mg/kg, route intravenous; details: in vivo
# [14] = target: T4, Peroxisome proliferator-activated receptor delta (Homo sapiens, UniProt Q03181); experiment: Partial agonist activity at PPARdelta by luciferase reporter gene assay; format: functional
# T4 sequence (Q03181 whole entry): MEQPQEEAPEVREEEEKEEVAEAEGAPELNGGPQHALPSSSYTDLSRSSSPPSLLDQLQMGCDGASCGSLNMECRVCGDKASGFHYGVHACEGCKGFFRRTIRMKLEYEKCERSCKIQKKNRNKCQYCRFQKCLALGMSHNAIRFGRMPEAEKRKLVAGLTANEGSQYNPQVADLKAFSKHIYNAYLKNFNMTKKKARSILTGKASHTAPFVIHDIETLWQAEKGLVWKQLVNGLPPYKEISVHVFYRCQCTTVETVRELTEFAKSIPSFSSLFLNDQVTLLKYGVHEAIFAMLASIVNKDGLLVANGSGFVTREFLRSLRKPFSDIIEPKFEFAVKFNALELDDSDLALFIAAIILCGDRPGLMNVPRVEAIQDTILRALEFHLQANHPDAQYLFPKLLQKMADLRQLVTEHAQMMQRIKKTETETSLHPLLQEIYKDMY
SMILES,Activity [1] [%],pEC50 [2],also measured
CC[C@@H](NC(=O)c1ccc2c(c1)ncn2Cc1ccccc1S(C)(=O)=O)c1ccccc1,73,6.40,
CC[C@@H](NC(=O)c1ccc2c(c1)nc(C)n2Cc1ccc(C(N)=O)cc1)c1ccccc1,17,5.00,
CC[C@@H](NC(=O)c1ccc2c(c1)nc(C)n2Cc1ccc(Cl)c(Cl)c1)c1ccccc1,75,7.40,
Cc1nc2cc(C(=O)N[C@@H](C)c3ccccc3)ccc2n1Cc1ccc(Cl)c(Cl)c1,50,6.20,
CC[C@@H](NC(=O)c1ccc2c(c1)nc(C)n2Cc1ccc(S(C)(=O)=O)cc1)c1ccccc1,48,5.30,
CC[C@@H](NC(=O)c1ccc2c(c1)ncn2Cc1ccc(F)cc1F)c1ccccc1,73,8.80,Kp [3]: 0.59; concentration (Brain [4]): 455 nM; clearance (Rattus norvegicus [5]): 107 mL/min/kg; CL (Liver microsomes [6]): 0.5 mL/min/g; CL (Liver microsomes [7]): 3.7 mL/min/g
CCc1nc2cc(C(=O)N[C@H](CC)c3ccccc3)ccc2n1Cc1ccc(Cl)c(Cl)c1,65,6.70,
Cc1nc2cc(C(=O)N[C@H](C)c3ccccc3)ccc2n1Cc1ccc(Cl)c(Cl)c1,77,7.30,CL (Liver microsomes [6]): 0.5 mL/min/g; concentration (Brain [8]): 12 nM; Kp [9]: 0.29; CL (Liver [10]): 8.3 mL/min/g; clearance (Rattus norvegicus [11]): 75 mL/min/kg; CL (Liver microsomes [7]): 1.4 mL/min/g
CC[C@@H](NC(=O)c1ccc2c(c1)nc(C(C)C)n2Cc1ccc(Cl)c(Cl)c1)c1ccccc1,42,6.40,
CC[C@@H](NC(=O)c1ccc2c(c1)ncn2Cc1ccc(Cl)cc1)c1ccccc1,74,8.50,
CCC(NC(=O)c1ccc2c(c1)nc(C)n2Cc1ccc(Cl)c(Cl)c1)c1ccccc1 (configuration not stated),64,7.30,CL (Liver microsomes [6]): 0.5 mL/min/g; pEC50 [12]: < 5.00; CL (Liver [13]): 1.75 mL/min/g; clearance (Mus musculus): 736 mL/min/kg; pEC50 [14]: < 5.00; CL (Liver microsomes [7]): 2.5 mL/min/g

# Now from value to molecule, other results behind:
Activity [1] [%],pEC50 [2],SMILES,also measured
81,7.80,CC[C@@H](NC(=O)c1ccc2c(c1)ncn2Cc1ncccc1Cl)c1ccccc1,
77,9.30,CC[C@@H](NC(=O)c1ccc2c(c1)ncn2Cc1ccc(Cl)cc1Cl)c1ccccc1,
59,6.90,CC[C@@H](NC(=O)c1ccc2c(c1)ncn2Cc1ccccn1)c1ccccc1,Kp [3]: 0.2; concentration (Brain [4]): 228 nM; clearance (Rattus norvegicus [5]): 78 mL/min/kg
80,7.40,CC[C@@H](NC(=O)c1ccc2c(c1)ncn2Cc1ccc(Cl)cn1)c1ccccc1,
63,6.10,CC[C@@H](NC(=O)c1ccc2c(c1)ncn2Cc1ccncc1)c1ccccc1,
